From US12012390B2, “Flavone compounds for the treatment and prophylaxis of hepatitis B virus disease” (priority 2018, dated 2024)
Where two headings read alike, the source gives them in different places.

Legend:
[1] = system: HBeAg level (surrogate marker for cccDNA) in HepDES19 cells; assay: Engineered HepDES19 primary screen assay (HBeAg as surrogate marker for cccDNA); format: cell-based, HBV
Procedure, shortened: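 HepDES19 cells were induced by Tet withdrawal for 8 days, then exposed to half-log compound dilutions (1% DMSO) for 5 days at 37° C. HBeAg, a cccDNA surrogate, was measured by ELISA; viability by CCK-8. IC50 from 4-parameter logistic fit.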

[2] = system: HBV in primary human hepatocytes (PHH); assay: Cryopreserved primary human hepatocytes (PHH) HBV infection assay; format: cell-based; conditions: HBV-infected cryopreserved PHH, 9 days post-compound treatment
Protocol: This assay is used to confirm the anti-HBV effect of the compounds in HBV PHH infection assay. Cryopreserved PHH (BioreclamationIVT, Lot YJM) was thawed at 37° C. and gently transferred into pre-warmed InVitroGRO HT medium (BioreclamationIVT, Cat. S03317). The mixture was centrifuged at 70 relative centrifugal force (RCF) for 3 minutes at RT, and the supernatant was discarded. Pre-warmed InVitroGRO CP medium (BioreclamationIVT, Cat #S03316) was added to the cell pellet to gently re-suspend cells. The cells were seeded at the density of 5.8×10^4 cells per well to collagen I coated 96-well plate (Gibco, Cat. A1142803) with the InVitroGRO CP medium. All plates were incubated at 37° C. with 5% CO2 and 85% humidity.
At 20 hours after plating, the medium was changed to PHH culture medium (Dulbecco's Modified Eagle Medium (DMEM)/F12 (1:1) (Gibco, Cat. 11320-033), 10% fetal bovine serum (Gibco Cat. 10099141), 100 U/mL penicillin, 100 μg/mL streptomycin (Gibco, Cat. 151401-122), 5 ng/mL human epidermal growth factor (Invitrogen Cat. PHG0311L), 20 ng/mL dexamethasone (Sigma, Cat. D4902) and 250 ng/mL human recombinant insulin (Gibco, Cat. 12585-014)). And the cells were incubated at 37° C. with 5% CO2 and 85% humidity for 4 hours. The medium was then changed to pre-warmed PHH culture medium containing 4% polyethylene glycol (PEG) MW8000 (Sigma, Cat. P1458-50ML) and 1% DMSO (Sigma, Cat. D2650). 5.8×10^6 genomic equivalents of HBV were added into the medium.
At 24 hours post-infection, the cells were gently washed with PBS and refreshed with PHH culture medium supplemented with 1% DMSO, and 0.25 mg/mL Matrix gel (Corning, Cat. 356237) at 200 μL per well. All plates were immediately placed in at 37° C. CO2 incubator.
24 hours later, serial dilutions of compounds made with DMSO were further diluted with the same culture medium (PHH culture medium supplemented with 1% DMSO and 0.25 mg/mL Matrix gel as described above) before they were added to the cells to reach desired final compound concentrations and 1% DMSO concentration. The medium containing the compounds were refreshed every three days.
At 9 days post-compound treatment, extracellular HBsAg level were measured with Chemiluminescence Immuno Assay (CLIA) kit (Autobio, HBsAg Quantitative CLIA). Extracellular HBV DNA was extracted by MagNA Pure 96 system (Roche) and then determined by quantitative PCR with the following primers and probe: […]
HBsAg IC50 and HBV DNA IC50 values were derived from the dose-response curve using 4 parameter logistic curve fit method. The compounds of formula (I) have HBsAg IC50<20 μM, particularly <1 μM; and HBV DNA IC50<50 μM. Test results of the compounds of this invention as well as the reference compounds in Cryopreserved PHH assay are given in Table 2 and Table 3.

[3] = Hepatitis B virus, HepDES19, 120 h, read-out: IC50 (HBeAg) in HepDES19 primary screen assay, HepDES19 cells, 5 days incubation with compound, HBeAg by ELISA
[4] = Hepatitis B virus, Hepatocyte, 216 h, extracellular HBsAg by CLIA, read-out: HBsAg IC50

SMILES	IC50 [1, 3]	IC50 ([2]; Hepatitis B virus, Hepatocyte, 216 h, extracellular HBV DNA by quantitative PCR, read-out: HBV DNA IC50)	IC50 [2, 4]	IC50 ([1]; read-out: IC50 (HBeAg) in HepDES19 primary screen assay, HepDES19 cells, 5 days incubation with compound, HBeAg by ELISA)	IC50 ([2]; extracellular HBsAg by CLIA, read-out: HBsAg IC50)
O=C(O)c1cccc(OCCOc2ccc(-c3cc(=O)c4cccc(Cl)c4o3)cc2)c1 [Example 3, 3-[2-[4-(8-chloro-4-oxo-chromen-2-yl)phenoxy]ethoxy]benzoic acid]	150 nM	35700 nM	12500 nM	–	–
CCOC(=O)C1CC(OCCOc2ccc(-c3cc(=O)c4cccc(Cl)c4o3)cc2)C1 (stereo not drawn) [Example 2, Ethyl 3-[2-[4-(8-chloro-4-oxo-chromen-2-yl)phenoxy]ethoxy]cyclobutanecarboxylate]	2480 nM	–	190 nM	–	–
O=c1cc(-c2ccc(OCCO[C@H]3C[C@@H](C(=O)O)C3)cc2)oc2c(Cl)ccc(Br)c12 [Example 28, Cis-3-[2-[4-(5-bromo-8-chloro-4-oxo-chromen-2-yl)phenoxy]ethoxy]cyclobutanecarboxylic acid]	2800 nM	–	1920 nM	–	–
O=c1cc(-c2ccc(OCCO[C@H]3C[C@@H](C(=O)O)C3)cc2)oc2c(Cl)cccc12 [Example 1-A, cis-3-[2-[4-(8-chloro-4-oxo-chromen-2-yl)phenoxy]ethoxy]cyclobutanecarboxylic acid]	140 nM	–	720 nM	–	–
COc1cc(OCCOC2CC(C(=O)O)C2)ccc1-c1cc(=O)c2cccc(Cl)c2o1 (stereo not drawn) [Example 50, 3-[2-[4-(8-chloro-4-oxo-chromen-2-yl)-3-methoxy-phenoxy]ethoxy]cyclobutanecarboxylic acid]	1780 nM	–	10200 nM	–	–
O=C(O)C1CC(OCCOc2ccc(-c3cc(=O)c4cc(C(F)(F)F)cc(Cl)c4o3)cc2)C1 (single isomer, unassigned) [Example 66-B, 3-[2-[4-[8-chloro-4-oxo-6-(trifluoromethyl)chromen-2-yl]phenoxy]ethoxy]cyclobutanecarboxylic acid]	13200 nM	–	4780 nM	–	–
COC(=O)[C@H]1C[C@@H](OCCOc2cnc(-c3cc(=O)c4cccc(Cl)c4o3)cn2)C1 [Example 40, Cis-methyl 3-[2-[5-(8-chloro-4-oxo-chromen-2-yl)pyrazin-2-yl]oxyethoxy]cyclobutanecarboxylate]	1610 nM	–	7120 nM	–	–
O=c1cc(-c2ccc(OCCO[C@H]3C[C@H](C(=O)O)C3)cc2)oc2c(Cl)cccc12 [Example 1-B, trans-3-[2-[4-(8-chloro-4-oxo-chromen-2-yl)phenoxy]ethoxy]cyclobutanecarboxylic acid]	140 nM	–	80 nM	–	–
O=c1cc(-c2ccc(OCCO[C@H]3C[C@@H](C(=O)O)C3)c(Br)c2)oc2c(Cl)cccc12 [Example 44, Cis-3-[2-[2-bromo-4-(8-chloro-4-oxo-chromen-2-yl)phenoxy]ethoxy]cyclobutanecarboxylic acid]	570 nM	–	40 nM	–	–
COC(=O)C1CC(OCCOc2ccc(-c3oc4c(Cl)cc(F)cc4c(=O)c3OC(F)(F)F)cc2)C1 (single isomer, unassigned) [Example 62-A, methyl 3-[2-[4-[8-chloro-6-fluoro-4-oxo-3-(trifluoromethoxy)chromen-2-yl]phenoxy]ethoxy]cyclobutanecarboxylate]	1010 nM	–	4220 nM	–	–
O=C(O)C1CC(OCCOc2ccc(-c3cc(=O)c4ccc(C(F)(F)F)c(Cl)c4o3)cc2)C1 (stereo not drawn) [Example 69, 3-[2-[4-[8-chloro-4-oxo-7-(trifluoromethyl)chromen-2-yl]phenoxy]ethoxy]cyclobutanecarboxylic acid]	10700 nM	–	2010 nM	–	–
O=C(O)C1CC(OCCCOc2ccc(-c3cc(=O)c4cccc(Cl)c4o3)cc2)C1 (stereo not drawn) [Example 13, 3-[3-[4-(8-chloro-4-oxo-chromen-2-yl)phenoxy]propoxy]cyclobutanecarboxylic acid]	690 nM	–	1270 nM	–	–
O=C(O)CCOCCOc1ccc(-c2cc(=O)c3cccc(Cl)c3o2)cc1 [Example 10, 3-[2-[4-(8-chloro-4-oxo-chromen-2-yl)phenoxy]ethoxy]propanoic acid]	790 nM	–	2720 nM	–	–
CC(C)(COCCOc1ccc(-c2cc(=O)c3cccc(Cl)c3o2)cc1)C(=O)O [Example 11, 3-[2-[4-(8-chloro-4-oxo-chromen-2-yl)phenoxy]ethoxy]-2,2-dimethyl-propanoic acid]	570 nM	–	12500 nM	–	–
CCOC(=O)C1CC1OCCOc1ccc(-c2cc(=O)c3cccc(Cl)c3o2)cc1 (single isomer, unassigned) [Example 4-A, ethyl 2-[2-[4-(8-chloro-4-oxo-chromen-2-yl)phenoxy]ethoxy]cyclopropanecarboxylate]	–	–	–	530 nM	6340 nM
O=C(O)COCCOc1ccc(-c2cc(=O)c3cccc(Cl)c3s2)cc1 [Example 58, 2-[2-[4-(8-chloro-4-oxo-thiochromen-2-yl)phenoxy]ethoxy]acetic acid]	520 nM	–	570 nM	–	–
O=C(O)C1CC(OCCOc2ccc(-c3cc(=O)c4ccc(F)c(Cl)c4o3)cc2)C1 (stereo not drawn) [Example 15, 3-[2-[4-(8-chloro-7-fluoro-4-oxo-chromen-2-yl)phenoxy]ethoxy]cyclobutanecarboxylic acid]	10300 nM	–	280 nM	–	–
Cc1cc(-c2cc(=O)c3cccc(Cl)c3o2)ccc1OCCOC1CC(C(=O)O)C1 (stereo not drawn) [Example 47, 3-[2-[4-(8-chloro-4-oxo-chromen-2-yl)-2-methyl-phenoxy]ethoxy]cyclobutanecarboxylic acid]	40 nM	–	240 nM	–	–
O=c1cc(-c2ccc(OCCO[C@H]3C[C@@H](C(=O)O)C3)c(F)c2)oc2c(Cl)cccc12 [Example 42, Cis-3-[2-[4-(8-chloro-4-oxo-chromen-2-yl)-2-fluoro-phenoxy]ethoxy]cyclobutanecarboxylic acid]	610 nM	–	580 nM	–	–
